Reference: PubChem BioAssay AID489033 (Sanford-Burnham Center for Chemical Genomics, 2010)
The source made the active and inactive calls. No rule for the calls is given here.

System: 697B B-cell line, NF-kB luciferase reporter luminescence
Experiment: inhibitors of B-cell NF-kB luciferase signal – 697B cells, luminescence, selectivity assay for T-cell antigen receptor NF-kB inhibitors, dose response (AID 489033)

Row | Compound | IC50
1 | CCCCC(=O)NC(c1ccc(Cl)cc1)c1ccc2cccnc2c1O (centres undefined) | > 80 µM (inactive)
2 | O=C(CSc1nnc(Cn2nnc3ccccc32)o1)N(Cc1ccc(F)cc1)c1ccccc1 | 12.7 µM
3 | COc1cc(-c2noc(C)c2-c2ccc(N(C)C)nc2)cc(OC)c1OC | > 80 µM (inactive)
4 | COc1ccc(NC(=O)C(=O)NCC2CCCN2S(=O)(=O)c2cccs2)cc1 (centres undefined) | > 80 µM (inactive)
5 | C=CCOC(=O)c1[nH]c2c(c1C)C(=O)CC(c1ccco1)C2 (centres undefined) | > 80 µM (inactive)
6 | C[C@@H]1C=CC(=O)O[C@@H]1c1ccc(Cl)cc1 | 5.11 µM
7 | O=C1c2cccc3cc([N+](=O)[O-])cc(c23)C(=O)N1CCN1CCCC1 | 18.7 µM
8 | CCCCCCCCCCn1c2c(c(=N)c3c1CCC3)CCC2 | 2.68 µM
9 | Cc1ccc(O)c(NC(=O)c2cc(-c3ccco3)on2)c1 | > 80 µM (inactive)
10 | COC(=O)C1=C(CN2CCCc3ccccc32)NC(=O)NC1c1ccc(F)cc1 (centres undefined) | 3.48 µM
11 | CCN1C=CC(=C2C(=O)c3ccccc3C2=O)C=C1 | 1.13 µM
12 | CC1=C(C(=O)OCc2ccc3c(c2)OCO3)C(c2ccc(Cl)cc2)NC(=O)N1 (centres undefined) | 0.46 µM
13 | COc1ccc([C@H]2CC(=O)C=C(c3c(OC)cccc3OC)C2)cc1 | > 80 µM (inactive)
14 | CCc1cc2c(=O)nc3n(c2s1)Cc1ccccc1/C3=C(/O)c1cccc([N+](=O)[O-])c1 | > 80 µM (inactive)
15 | CN(C)S(=O)(=O)c1ccc(Nc2nc(C3CC3)nc3c2nnn3Cc2ccccc2Cl)cc1 | > 80 µM (inactive)
16 | CCOc1ccc(NC(=O)c2cc3c(C)nc4ccccc4c3o2)cc1 | > 80 µM (inactive)
17 | C=CCn1c(SCc2c(C)noc2C)nc2ccccc2c1=O | > 80 µM (inactive)
18 | CC1=NNC(=O)/C1=C\c1cn(-c2ccccc2)nc1-c1ccc(Cl)cc1 | 6.48 µM
19 | O=C(Sc1cccc2cccnc12)c1ccc(F)cc1 | 1.03 µM
20 | COc1cccc(N2CCN(C(=O)c3ccc(CS(=O)c4ccccc4Cl)o3)CC2)c1 (centres undefined) | 69.8 µM (inactive)
21 | CCC(O)C1CCN(C(=O)c2cc(COc3ccc4ncccc4c3)on2)CC1 (centres undefined) | 3.88 µM
22 | COc1ccc(Nc2nc(-c3sc(C)nc3C)cs2)cc1 | > 80 µM (inactive)
23 | CCOc1ccc(S(=O)(=O)NCc2ccccn2)cc1NC(=O)c1ccccc1 | > 80 µM (inactive)

Row | Compound | IC50
24 | CN[C@H]1CCc2cc(OC)c(OC)c(OC)c2-c2ccc(OC)c(=O)cc21 | > 80 µM (inactive)
25 | C[C@]12CC[C@H]3[C@@H](CC[C@]4(O)C[C@@H](O)CC[C@]34C=O)[C@@]1(O)CC[C@@H]2C1=CC(=O)OC1 | 1.13 µM
26 | COc1ccc(-n2nnnc2-c2ccccc2)cc1 | > 80 µM (inactive)
27 | O=C(Nc1ccc(Cc2ccncc2)cc1)c1ccc(S(=O)(=O)N2CCCC2)cc1 | 5.3 µM
28 | Cc1nc(NCc2ccco2)c2c(C)c(C)sc2n1 | 5.3 µM
29 | COc1ccccc1N1CCN(C(=O)C2c3ccccc3Oc3ccccc32)CC1 | > 80 µM (inactive)
30 | Cc1ccc(C(=O)Nc2cc3ccccc3oc2=O)cc1 | 2.11 µM
31 | COC(=O)[C@]12OC[C@]34C([C@@H](O)[C@@H]1O)[C@]1(C)CC(=O)C(O)=C(C)[C@@H]1C[C@H]3OC(=O)[C@H](O)[C@@H]24 (some centres undefined) | 0.23 µM
32 | Cc1cccc(N2CCN(C(=O)c3c(-c4ccccc4Cl)noc3C)CC2)c1C | > 80 µM (inactive)
33 | COc1cccc2sc(Nc3nnc(-c4ccccc4Cl)o3)nc12 | 3.64 µM
34 | O=C(NCCc1ccccc1)c1ccc2c(c1)OCCO2 | 1.12 µM
35 | Cc1cc(NC(=O)CSc2nc3ccccc3c(=O)n2C2CCCC2)no1 | > 80 µM (inactive)
36 | COc1ccc(C(=O)/C(C#N)=N/Nc2ccc([N+](=O)[O-])cc2)cc1 | 18.6 µM
37 | COc1cc2nc(NC(=O)c3ccco3)sc(=O)c2cc1OC | 0.67 µM
38 | CC(C)c1oc(=O)cc2c1[C@@H](O)[C@H]1OC(=O)[C@@]3(C)C[C@@H](O)[C@@H](O)[C@@]2(C)C13 (some centres undefined) | 7.2 µM
39 | COc1ccc(N/N=C/c2c(C(=O)O)ccc3ccccc23)cc1 | 58.4 µM (inactive)
40 | CCN(c1ccccc1)S(=O)(=O)c1ccc(C(=O)NC2CCN(Cc3ccccc3)CC2)cc1 | > 80 µM (inactive)
41 | Cc1ccc(C)c(N=Nc2ccc(O)c3ncccc23)c1 | 4.44 µM
42 | Cc1c(C(=O)OCc2ccccc2)[nH]c2c1C(=O)CC(c1ccco1)C2 (centres undefined) | > 80 µM (inactive)
43 | CCN1C/C(=C/c2ccc(OC)c(O)c2)C(=O)/C(=C/c2ccc(OC)c(O)c2)C1 | 25.2 µM (inactive)
44 | COc1cccc(N2CCN(C(=O)c3ccc(CS(=O)c4ccccc4C)o3)CC2)c1 (centres undefined) | > 80 µM (inactive)
45 | COC(=O)c1ccc(C)c(NS(=O)(=O)c2ccc3c(c2)OCCO3)c1 | > 80 µM (inactive)
46 | O=C(NN=Cc1c(O)ccc2ccccc12)c1ccc2c(c1)OCO2 | > 80 µM (inactive)

Row | Compound | IC50
47 | CCCN(CCC)C1=CC(=[N+]2CCCC2)CC(C)(C)C1 | 22.6 µM (inactive)
48 | CCOC(=O)C(C)Oc1cccc2c(=O)n(CC(=O)NCc3ccco3)ccc12 (centres undefined) | > 80 µM (inactive)
49 | COc1cc([C@@H]2c3cc4c(cc3[C@@H](OC)[C@H]3COC(=O)[C@H]23)OCO4)cc(OC)c1O | > 80 µM (inactive)
50 | Cc1cc(C)c(S(=O)(=O)Nc2ccc3c4c(cccc24)CC3)c(C)c1 | > 80 µM (inactive)
51 | Cc1c(C)c2ccc(OCC(=O)Nc3ccccn3)c(C)c2oc1=O | 7.65 µM
52 | O=C(Nc1ccc(N2CCN(C(=O)c3ccc(Cl)cc3)CC2)cc1)c1ccc2c(c1)OCCO2 | > 80 µM (inactive)
53 | CCCCCn1c2c(c(=N)c3ccccc31)CCC2 | 50.3 µM (inactive)
54 | CCOC(=O)c1[nH]c(C)c(C(=O)c2cc(F)ccc2F)c1C | > 80 µM (inactive)
55 | O=S(=O)(Nc1ccc(F)cc1Cl)c1ccc(-c2cnc(C3CC3)o2)cc1 | 73.4 µM (inactive)
56 | COc1ccc(C)cc1NS(=O)(=O)c1ccc(-c2cnc(C3CC3)o2)cc1 | > 80 µM (inactive)
57 | COc1ccc(OC)c(-c2nnc3n2N=C(c2ccc(OC)c(OC4CCCC4)c2)CS3)c1 | 35.3 µM (inactive)
58 | CCCSc1nnc(Sc2nnnn2-c2ccccc2)s1 | 7 µM
59 | Cc1ccc(-c2nc(-c3ccccn3)no2)cc1 | 3.78 µM
60 | CCn1ncc(C2=NOC(C(=O)NCc3ccccc3)C2)c1C (centres undefined) | > 80 µM (inactive)
61 | C=C(C)C(=O)O[C@H]1C/C(C)=C\C(=O)/C=C(\C)[C@H](O)[C@@H]2OC(=O)C(=C)[C@@H]21 | 1.06 µM
62 | CCCCCC(=O)N[C@@H](c1ccccc1)[C@@H](O)C(=O)O[C@H]1C[C@@]2(O)[C@@H](OC(=O)c3ccccc3)C3[C@](C)(C(=O)[C@H](OC(C)=O)C(=C1C)C2(C)C)[C@@H](O)C[C@H]1OC[C@@]31OC(C)=O (some centres undefined) | > 80 µM (inactive)
63 | C=CC[C@@H](CC/C=C/C=C/CC/C=C\[C@@H]1CSC([C@@H]2C[C@@H]2C)=N1)OC | 15.3 µM
64 | CCCCN=C[C@]12CCC(O)CC1(O)CCC1[C@@H]2CC[C@]2(C)[C@H](C3C=CC(=O)O3)CCC12O (some centres undefined) | 2.49 µM
65 | COc1ccc(NC(=O)/C(Cl)=C(/Cl)S(=O)Cc2ccc(Cl)cc2)cn1 (centres undefined) | 0.18 µM
66 | O=C(NCc1ccc2c(c1)OCO2)c1cc([N+](=O)[O-])ccc1N1CCOCC1 | > 80 µM (inactive)
67 | Cc1ccc2c(c1)COc1c3ccc(C(=O)O)cc3nn1-2 | 13.4 µM
68 | COCCCNC(=O)C(=O)Nc1ccc2c(c1)N(S(=O)(=O)c1cccs1)CCC2 | > 80 µM (inactive)
69 | COc1ccc(NC(=O)C(=O)NCC2CCCN2S(=O)(=O)c2ccc(C)cc2)cc1 (centres undefined) | > 80 µM (inactive)
